{"source": "patent US20130040982A1", "about": "“ORAL SUSTAINED RELEASE FORMULATION OF HUPERZINE A” (Yissum Research Development Company of the Hebrew …, priority 2010, published 2013)", "key": {"[1]": {"tested_on": "intestinal tissue (duodenum, jejunum, colon)", "type": "in vitro ADME, rat"}, "in vivo": {"assay": "in vivo", "settings": "rat, 0.5 mg/kg", "description": "All surgical and experimental procedures were reviewed and approved by the Animal Experimentation Ethics Committee of the Hebrew University Hadassah Medical School, Jerusalem. Male Wistar rats (Harlan, Israel), 290-350 grams in weight, were used for all surgical procedures.\nAnimals were anesthetized for the period of surgery by intra-peritoneal injection of 1 ml/kg of ketamine (9%)-xylazine (1%) solution. An indwelling cannula was placed in the right jugular vein of each animal for systemic blood sampling, as described in Jiang et al. [Curr Med Chem 2003, 10:2231-2252]. The cannula was tunneled beneath the skin and exteriorized at the dorsal part of the neck. After completion of the surgical procedure, the animals were transferred to metabolic cages to recover overnight (12-18 hours). During this recovery period and throughout the experiment, food, but not water, was deprived. Animals were randomly assigned to the different experimental groups.\nIn order to study the pharmacokinetic parameters of huperzine A, identical doses (0.5 mg/kg) of huperzine A dissolved in water were administered to 6 animals by oral gavage needle and to 6 animals by intravenous infusion through the jugular vein cannula followed by injection of 0.2 ml of heparinized saline (50 IU/ml) to ensure the delivery of the whole dose. Systemic blood samples (400 μl) were taken 5 minutes prior to dosing, and at various time periods post-dose, as indicated. To prevent dehydration, equal volumes of physiological solution were introduced to the rats following each withdrawal of a blood sample.\nAnother group (4 animals) received huperzine A as an intra-peritoneal injection. The doses, the vehicle and the volume used in the intra-peritoneal administration were similar to those used in the oral administration experiments.\nAbsorption of huperzine A from the colon was studied using an additional experimental group (7 animals). A cannula was placed to the cecum, tunneled beneath the skin and exteriorized at the dorsal part of the neck. Following overnight recovery, the animals were dosed through the colonic cannula and the pharmacokinetic experiment was conducted. The doses, the vehicle and the volume used in the colonic administration were similar to those used in the oral administration experiments. The drug was infused over the course of 90 minutes.\nAbsorption of huperzine A from the duodenum was studied using another experimental group (5 animals). A cannula was placed to the duodenum, tunneled beneath the skin and exteriorized at the dorsal part of the neck. Following overnight recovery, the animals were dosed through the duodenal cannula and the pharmacokinetic experiment was conducted. […]\nHuperzine A concentrations in plasma samples were determined by an HPLC assay. The area under plasma concentrations versus time curves (AUC) for huperzine A in individual rats were analyzed using WinNonlin® Professional software version 5.0.1, according to the non-compartmental analysis model, as were other pharmacokinetic parameters (elimination constant (10; elimination half-life (T1/2); peak concentration (Cmax); and time to reach peak concentration (Tmax)). The absolute bioavailability (F) of huperzine A was calculated from the ratio of the AUCs normalized by dose after oral and intravenous administration.\nAll tested compounds were analyzed using a Waters 2695 Separation Module HPLC system with a Waters 2475 Fluorescence Detector and a Waters 2996 Photodiode Array Detector (Waters Corporation). […]"}, "Caco-2 cells": {"tested_on": "Caco-2 cells", "type": "in vitro ADME", "description": "Caco-2 cells were obtained from ATCC (Manassas, Va., USA) and grown in 75 cm^2 flasks with approximately 0.5-1×10^6 cells per flask, at a temperature of 37° C. in a 5% CO2 atmosphere with a relative humidity of 95%. The culture growth medium consisted of Dulbecco's Modified Eagle Medium (DMEM) supplemented with 10% heat-inactivated fetal bovine serum (FBS), 1% nonessential amino acids, and 2 mM L-glutamine. The medium was replaced twice weekly. All medium supplements were obtained from Biological Industries (Beth-Haemek, Israel).\nCells in a passage range of 52-60 were seeded at a density of […] on untreated culture inserts of a polycarbonate membrane with 0.4 μm pores and a surface area of 1.1 cm^2. The culture inserts containing Caco-2 monolayers were placed in Costar® 24-Transwell plates (12 mm wells). The culture medium was changed every other day. […]\nThe permeability coefficient (Papp) for each compound was calculated from the linear plot of drug accumulated versus time, using the following equation: […]\nIntestinal permeability towards huperzine A was evaluated using an in vitro model with Caco-2 epithelial colorectal cell culture, and using an ex-vivo animal intestine model (Ussing chamber model), as described in the Materials and Methods section. […]"}, "[2]": {"type": "physicochemical", "settings": "1 μg/ml", "description": "0.5 ml of a 1 μg/ml aqueous solution of huperzine A was placed in glass tubes and heated in an oven for 30, 60 or 90 minutes. The samples were then reconstituted with double-distilled water and the amount of remaining huperzine A was determined by HPLC, as described hereinabove."}, "[3]": {"settings": "in vivo, po, cited from earlier work"}}, "note": "Where two headings read alike, the source gives them in different places.", "data": [{"smiles": "C/C=C1\\[C@H]2C=C(C)C[C@]1(N)c1ccc(=O)[nH]c1C2", "note": "[huperzine A]", "values": [{"measurement": "permeability towards huperzine A in the colon", "setting": "[1]", "value": "lower than in the jejunum and duodenum, but was still significant"}, {"measurement": "bioavailability", "setting": "in vivo; male, Wistar", "value": "~50", "unit": "%"}, {"measurement": "half-life", "setting": "in vivo; male, Wistar", "value": "~1.67", "unit": "h"}, {"measurement": "bioavailability following colonic infusion", "setting": "in vivo; po", "value": "significantly lower than the bioavailability following oral bolus"}, {"measurement": "bioavailability following duodenal infusion", "setting": "in vivo; po", "value": "at least as high as the bioavailability following oral bolus"}, {"measurement": "time of maximal plasma levels (Cmax)", "setting": "in vivo; po", "value": "25 to 30", "unit": "min"}, {"measurement": "permeability coefficient (Papp)", "setting": "Caco-2 cells", "value": "lower than that of antipyrine, and higher than that of mannitol"}, {"measurement": "temperature at which degradation of huperzine A was observed", "setting": "[2]", "value": "≥ 150", "unit": "°C"}, {"measurement": "bioavailability", "setting": "[3]; human", "value": 99, "unit": "%"}, {"measurement": "half-lives", "setting": "[3]; human", "value": "6 to 12", "unit": "h"}, {"measurement": "time to peak serum concentration", "setting": "[3]", "value": "approximately 1 hour"}]}]}
